Laboratory results taken from patent US20220348558A1, “INHIBITORS OF ENCEPHALITIC ALPHAVIRUSES” (priority 2019, published 2022).

Key:
Experiment in all cases: microbe, parasite or virus in culture
Format in all cases: cell-based
VEEV TC83 = conditions: Venezuelan equine encephalitis virus, Vero 76, 48 h, read-out: VEEV TC83 EC50 nM
WEEV California = conditions: Western equine encephalitis virus, Vero 76, 48 h, read-out: WEEV California EC50 nM
EEEV FL93-939 = conditions: Eastern equine encephalitis virus, Vero 76, 48 h, read-out: EEEV FL93-939 EC50
EEEV BeAr 436087 = conditions: Eastern equine encephalitis virus, Vero 76, 48 h, read-out: EEEV BeAr 436087 EC50 nM

SMILES | EC50 (VEEV TC83) | EC50 (WEEV California) | EC50 (EEEV FL93-939) | EC50 (EEEV BeAr 436087)
COc1ccc(-n2c([C@H]3CCNC3)nc3ccc([N+](=O)[O-])cc3c2=O)cc1 [Example 18, (S)-3-(4-methoxyphenyl)-6-nitro-2-(pyrrolidin-3-yl) quinazolin-4 (3H)-one] | 1 to 50 nM | 151 to 500 nM | 151 to 500 nM | 51 to 150 nM
COc1ccc(-n2c([C@H]3CCCN3)nc3c(-c4cccnc4)cc(C#N)cc3c2=O)cc1F [Example 107, (R)-3-(3-fluoro-4-methoxyphenyl)-4-oxo-8-(pyridin-3-yl)-2-(pyrrolidin-2-yl)-3,4-dihydroquinazoline-6-carbonitrile] | 1 to 50 nM | 1 to 50 nM | 51 to 150 nM | 1 to 50 nM
COc1ccc(-n2c([C@@H]3CCCN3C)nc3c(C)cc([N+](=O)[O-])cc3c2=O)cc1 [Example 58, (S)-3-(4-methoxyphenyl)-8-methyl-2-(1-methylpyrrolidin-2-yl)-6-nitroquinazolin-4 (3H)-one] | 1 to 50 nM | 1 to 50 nM | 51 to 150 nM | 51 to 150 nM
COc1ccc(-n2c([C@H]3CCCN3C)nc3c(C)cc([N+](=O)[O-])cc3c2=O)cc1 [Example 57, (R)-3-(4-methoxyphenyl)-8-methyl-2-(1-methylpyrrolidin-2-yl)-6-nitroquinazolin-4 (3H)-one] | 51 to 150 nM | 151 to 500 nM | 51 to 150 nM | 51 to 150 nM
COc1ccc(-n2c([C@H]3CCCN3)nc3c(C)cc([N+](=O)[O-])cc3c2=O)cc1F [Example 59] | 1 to 50 nM | 1 to 50 nM | 51 to 150 nM | 51 to 150 nM
COc1ccc(-n2c([C@H]3CCCN3C)nc3c(-c4ccoc4)cc(C#N)cc3c2=O)cc1F [Example 115, (R)-3-(3-fluoro-4-methoxyphenyl)-8-(furan-3-yl)-2-(1-methylpyrrolidin-2-yl)-4-oxo-3,4-dihydroquinazoline-6-carbonitrile] | 1 to 50 nM | 1 to 50 nM |  | 
COc1ccc(-n2c([C@H]3C[C@H](F)CN3)nc3c(-c4ccc(C)nc4)cc(C#N)cc3c2=O)cc1F [Example 112, 3-(3-fluoro-4-methoxyphenyl)-2-((2R,4S)-4-fluoropyrrolidin-2-yl)-8-(6-methylpyridin-3-yl)-4-oxo-3,4-dihydroquinazoline-6-carbonitrile] | 1 to 50 nM | 51 to 150 nM |  | 
COc1ccc(-n2c([C@H]3CCN(C)C3)nc3c(C)cc([N+](=O)[O-])cc3c2=O)cc1F [Example 66, (S)-3-(3-fluoro-4-methoxyphenyl)-8-methyl-2-(1-methylpyrrolidin-3-yl)-6-nitroquinazolin-4 (3H)-one] | 151 to 500 nM | 151 to 500 nM |  | 
Cc1cc(-c2cc(C#N)cc3c(=O)n(-c4cc(F)c(NCC5(CO)COC5)c(F)c4)c(C4CCCN4)nc23)cc(C)n1 (centres unmarked) [Example 164, 3-(3,5-difluoro-4-(((3-(hydroxymethyl)oxetan-3-yl)methyl)amino)phenyl)-8-(2,6-dimethylpyridin-4-yl)-4-oxo-2-(pyrrolidin-2-yl)-3,4-dihydroquinazoline-6-carbonitrile] | 501 to 1000 nM | 501 to 1000 nM |  | 
COc1ccc(-n2c(C3CCCN3)nc3c(-c4ccc(C#N)nc4)cc(C#N)cc3c2=O)cc1F (centres unmarked) [Example 126, 8-(6-cyanopyridin-3-yl)-3-(3-fluoro-4-methoxyphenyl)-4-oxo-2-(pyrrolidin-2-yl)-3,4-dihydroquinazoline-6-carbonitrile] | 1 to 50 nM | 51 to 150 nM |  | 
COc1ccc(-n2c([C@H]3CCCN3)nc3c(C)cc(C#N)cc3c2=O)cc1 [Example 50, (R)-3-(4-methoxyphenyl)-8-methyl-4-oxo-2-(pyrrolidin-2-yl)-3,4-dihydroquinazoline-6-carbonitrile] | 1 to 50 nM | 1 to 50 nM |  | 
